Laboratory results reported in ChEMBL document CHEMBL3400044, “Minimization of drug-drug interaction risk and candidate selection in a natural product-based class of gamma-secretase modulators” (Bioorg Med Chem Lett, 2015).

Test: physchem
For `CCO[C@@H]([C@H]1C[C@@H](C)[C@H]2[C@H](O1)[C@H](O)[C@@]1(C)[C@@H]3CC[C@H]4C(C)(C)[C@@H](O[C@H]5CN(CC(=O)N6CCC6)CCO5)CC[C@@]45C[C@@]35CC[C@]21C)C(C)(C)O`, the pKa was 5.2.
Work on `CCO[C@@H]([C@H]1C[C@@H](C)[C@H]2[C@H](O1)[C@H](O)[C@@]1(C)[C@@H]3CC[C@H]4C(C)(C)[C@@H](O[C@H]5CN(C6(C)COC6)CCO5)CC[C@@]45C[C@@]35CC[C@]21C)C(C)(C)O` yielded a pKa of 5.2.
For `CCO[C@@H]([C@H]1C[C@@H](C)[C@H]2[C@H](O1)[C@H](O)[C@@]1(C)[C@@H]3CC[C@H]4C(C)(C)[C@@H](O[C@H]5CN(C6CNC6)CCO5)CC[C@@]45C[C@@]35CC[C@]21C)C(C)(C)O`, the pKa was 10.7.
For `CCO[C@@H]([C@H]1C[C@@H](C)[C@H]2[C@H](O1)[C@H](O)[C@@]1(C)[C@@H]3CC[C@H]4C(C)(C)[C@@H](O[C@H]5CN(C)CCO5)CC[C@@]45C[C@@]35CC[C@]21C)C(C)(C)O`, the pKa was 7.2.
For `CCO[C@@H]([C@H]1C[C@@H](C)[C@H]2[C@H](O1)[C@H](O)[C@@]1(C)[C@@H]3CC[C@H]4C(C)(C)[C@@H](O[C@H]5CN(CC)CCO5)CC[C@@]45C[C@@]35CC[C@]21C)C(C)(C)O`, the pKa was 7.3.
In the case of `CCO[C@@H]([C@H]1C[C@@H](C)[C@H]2[C@H](O1)[C@H](O)[C@@]1(C)[C@@H]3CC[C@H]4C(C)(C)[C@@H](O[C@H]5CN(CCN6CCC6)CCO5)CC[C@@]45C[C@@]35CC[C@]21C)C(C)(C)O`, the pKa is reported as 9.4.
`CCO[C@@H]([C@H]1C[C@@H](C)[C@H]2[C@H](O1)[C@H](O)[C@@]1(C)[C@@H]3CC[C@H]4C(C)(C)[C@@H](O[C@H]5CN(C6COC6)CCO5)CC[C@@]45C[C@@]35CC[C@]21C)C(C)(C)O` gave a pKa of 5.1.
In the case of `CCO[C@@H]([C@H]1C[C@@H](C)[C@H]2[C@H](O1)[C@H](O)[C@@]1(C)[C@@H]3CC[C@H]4C(C)(C)[C@@H](O[C@H]5CNCCO5)CC[C@@]45C[C@@]35CC[C@]21C)C(C)(C)O`, the pKa is reported as 7.8.
